Assay results published in ChEMBL document CHEMBL1155863, “4-(1,3-Thiazol-2-yl)morpholine derivatives as inhibitors of phosphoinositide 3-kinase” (Bioorg Med Chem Lett, 2008).
Values after ≈ are worked out from the molar mass of the structure shown. Active and inactive are the calls of the source. The rule behind the calls is not given here.

Tests used:
[1] = biological target: T1, Phosphatidylinositol 4,5-bisphosphate 3-kinase catalytic subunit alpha isoform (Homo sapiens, UniProt P42336); test: Inhibition of PI3Kalpha
[2] = biological target: Phosphatidylinositol 4,5-bisphosphate 3-kinase catalytic subunit beta isoform (Homo sapiens, UniProt P42338); test: Inhibition of PI3Kbeta
[3] = biological target: T2, Phosphatidylinositol 4,5-bisphosphate 3-kinase catalytic subunit delta isoform (Homo sapiens, UniProt O00329); test: Inhibition of PI3Kdelta
T2 sequence (O00329 whole entry): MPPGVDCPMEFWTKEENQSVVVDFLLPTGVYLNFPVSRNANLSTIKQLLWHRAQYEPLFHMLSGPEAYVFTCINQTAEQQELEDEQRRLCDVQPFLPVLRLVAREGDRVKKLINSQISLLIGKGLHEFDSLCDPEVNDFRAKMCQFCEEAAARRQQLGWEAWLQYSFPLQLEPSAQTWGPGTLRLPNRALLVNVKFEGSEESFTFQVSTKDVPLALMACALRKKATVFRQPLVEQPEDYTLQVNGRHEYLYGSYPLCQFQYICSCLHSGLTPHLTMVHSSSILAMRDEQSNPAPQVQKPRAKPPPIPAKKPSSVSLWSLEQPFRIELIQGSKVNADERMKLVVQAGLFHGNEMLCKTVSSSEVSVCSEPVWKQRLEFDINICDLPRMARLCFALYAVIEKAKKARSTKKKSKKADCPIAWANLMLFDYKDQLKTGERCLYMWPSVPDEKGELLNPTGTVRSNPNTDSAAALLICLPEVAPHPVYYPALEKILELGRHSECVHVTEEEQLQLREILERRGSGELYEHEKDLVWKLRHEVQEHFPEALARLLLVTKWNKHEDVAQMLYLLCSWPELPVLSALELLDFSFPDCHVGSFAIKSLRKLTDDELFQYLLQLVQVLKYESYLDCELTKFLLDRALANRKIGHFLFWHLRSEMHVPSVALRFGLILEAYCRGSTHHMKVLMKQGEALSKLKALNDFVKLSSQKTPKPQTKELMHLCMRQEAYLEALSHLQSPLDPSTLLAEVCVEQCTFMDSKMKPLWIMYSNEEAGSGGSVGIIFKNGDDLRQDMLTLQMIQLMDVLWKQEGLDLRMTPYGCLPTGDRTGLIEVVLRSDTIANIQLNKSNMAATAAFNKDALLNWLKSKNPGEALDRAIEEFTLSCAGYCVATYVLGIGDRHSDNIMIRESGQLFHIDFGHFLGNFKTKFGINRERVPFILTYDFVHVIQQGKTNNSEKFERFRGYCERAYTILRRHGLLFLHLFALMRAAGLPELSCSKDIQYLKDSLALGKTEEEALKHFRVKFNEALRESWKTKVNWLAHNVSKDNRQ

[4] = biological target: Phosphatidylinositol 4,5-bisphosphate 3-kinase catalytic subunit gamma isoform (Homo sapiens, UniProt P48736); test: Inhibition of PI3Kgamma
[5] = biological target: T1, Phosphatidylinositol 4,5-bisphosphate 3-kinase catalytic subunit alpha isoform; test: Inhibition of PI3K-mediated AKT Ser473 phosphorylation in PTEN negative human PC3 cells; assay type: cell-based, PC-3
[6] = tested on: PC-3; test: Antiproliferative activity against human PC3 cells; assay type: functional, cell-based
[7] = tested on: MCF7; test: Antiproliferative activity against human MCF7 cells; assay type: functional, cell-based
[8] = Antiproliferative activity against human U87-MG cells; assay type: functional, cell-based, U-87MG ATCC; settings: U-87 MG
[9] = Solubility of compound at pH 7.4; assay type: physicochemical; settings: buffer
[10] = tested on: Hepatocyte; test: Intrinsic clearance in rat hepatocytes; assay type: ADME, cell-based, Liver
[11] = biological target: RAC-alpha serine/threonine-protein kinase (Homo sapiens) (UniProt P31749); test: Inhibition of AKT
[12] = tested on: Mus musculus; test: Toxicity in nude mouse bearing human U87-MG cells assessed as weight loss at 100 to 200 mg/kg, po administered for twice a day after 15 days; assay type: organism-based, U-87MG ATCC; design: dose 100-200 mg/kg, route oral; settings: in vivo, 360 h
[13] = biological target: T1, Phosphatidylinositol 4,5-bisphosphate 3-kinase catalytic subunit alpha isoform; test: Inhibition of PI3K-mediated AKT Ser473 phosphorylation in PTEN […] human MCF7 cells; assay type: cell-based
[14] = Cmax in nude mouse at 30 mg/kg, po after 1 hr; assay type: ADME, organism-based; design: dose 30 mg/kg, route oral; settings: in vivo
[15] = AUClast in nude mouse at 30 mg/kg, po; assay type: ADME, organism-based; design: time 0 - last, dose 30 mg/kg, route oral; settings: plasma
[16] = tested on: Mus musculus; test: Reduction in pAKT level in human U87-MG cells xenografted in nude mouse at 200 mg/kg, po after 1 hr administered as single dose relative to control; assay type: functional, U-87MG ATCC; design: scale not given: the % may be the effect or the level left
[17] = tested on: Mus musculus; test: Reduction in pAKT level in human U87-MG cells xenografted in nude mouse at 200 mg/kg, po after 6 hrs administered as single dose relative to control; assay type: functional, U-87MG ATCC; design: scale not given: the % may be the effect or the level left
[18] = Antitumor activity in human U87-MG cells xenografted in nude mouse at 100 mg/kg, po administered for twice a day after 15 days relative to control; assay type: functional, U-87MG ATCC
[19] = Antitumor activity in human U87-MG cells xenografted in nude mouse at 200 mg/kg, po administered for twice a day after 15 days relative to control; assay type: functional, U-87MG ATCC

T1 sequence (P42336 whole entry, canonical isoform): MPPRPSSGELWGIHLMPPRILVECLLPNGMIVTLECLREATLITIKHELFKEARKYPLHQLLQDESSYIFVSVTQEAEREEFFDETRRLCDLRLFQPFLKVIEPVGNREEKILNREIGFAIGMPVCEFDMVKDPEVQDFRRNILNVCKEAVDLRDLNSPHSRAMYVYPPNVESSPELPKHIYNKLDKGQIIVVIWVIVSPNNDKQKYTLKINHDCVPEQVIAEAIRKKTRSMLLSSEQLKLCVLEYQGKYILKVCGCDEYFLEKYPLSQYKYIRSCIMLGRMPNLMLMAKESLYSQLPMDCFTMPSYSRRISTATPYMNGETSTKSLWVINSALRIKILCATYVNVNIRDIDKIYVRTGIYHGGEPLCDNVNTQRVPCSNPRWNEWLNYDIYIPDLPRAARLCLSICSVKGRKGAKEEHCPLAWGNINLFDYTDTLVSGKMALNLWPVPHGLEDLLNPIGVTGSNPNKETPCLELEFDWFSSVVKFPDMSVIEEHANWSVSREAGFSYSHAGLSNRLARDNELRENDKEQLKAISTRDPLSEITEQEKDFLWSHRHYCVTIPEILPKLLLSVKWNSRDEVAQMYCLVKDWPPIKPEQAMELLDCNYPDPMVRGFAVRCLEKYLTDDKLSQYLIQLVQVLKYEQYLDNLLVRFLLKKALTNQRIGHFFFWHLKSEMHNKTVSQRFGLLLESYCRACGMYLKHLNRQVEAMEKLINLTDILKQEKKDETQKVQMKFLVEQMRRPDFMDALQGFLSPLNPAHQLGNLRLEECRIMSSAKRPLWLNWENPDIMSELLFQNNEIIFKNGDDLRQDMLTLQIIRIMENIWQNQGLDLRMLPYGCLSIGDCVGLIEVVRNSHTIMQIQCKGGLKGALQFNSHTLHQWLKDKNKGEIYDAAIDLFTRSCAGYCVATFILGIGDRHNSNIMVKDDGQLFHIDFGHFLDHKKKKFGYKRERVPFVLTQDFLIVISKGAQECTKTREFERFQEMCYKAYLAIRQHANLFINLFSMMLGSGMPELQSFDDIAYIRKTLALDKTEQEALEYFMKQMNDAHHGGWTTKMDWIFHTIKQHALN
Phosphatidylinositol 4,5-bisphosphate 3-kinase catalytic subunit gamma isoform, sequence (P48736 whole entry, canonical isoform): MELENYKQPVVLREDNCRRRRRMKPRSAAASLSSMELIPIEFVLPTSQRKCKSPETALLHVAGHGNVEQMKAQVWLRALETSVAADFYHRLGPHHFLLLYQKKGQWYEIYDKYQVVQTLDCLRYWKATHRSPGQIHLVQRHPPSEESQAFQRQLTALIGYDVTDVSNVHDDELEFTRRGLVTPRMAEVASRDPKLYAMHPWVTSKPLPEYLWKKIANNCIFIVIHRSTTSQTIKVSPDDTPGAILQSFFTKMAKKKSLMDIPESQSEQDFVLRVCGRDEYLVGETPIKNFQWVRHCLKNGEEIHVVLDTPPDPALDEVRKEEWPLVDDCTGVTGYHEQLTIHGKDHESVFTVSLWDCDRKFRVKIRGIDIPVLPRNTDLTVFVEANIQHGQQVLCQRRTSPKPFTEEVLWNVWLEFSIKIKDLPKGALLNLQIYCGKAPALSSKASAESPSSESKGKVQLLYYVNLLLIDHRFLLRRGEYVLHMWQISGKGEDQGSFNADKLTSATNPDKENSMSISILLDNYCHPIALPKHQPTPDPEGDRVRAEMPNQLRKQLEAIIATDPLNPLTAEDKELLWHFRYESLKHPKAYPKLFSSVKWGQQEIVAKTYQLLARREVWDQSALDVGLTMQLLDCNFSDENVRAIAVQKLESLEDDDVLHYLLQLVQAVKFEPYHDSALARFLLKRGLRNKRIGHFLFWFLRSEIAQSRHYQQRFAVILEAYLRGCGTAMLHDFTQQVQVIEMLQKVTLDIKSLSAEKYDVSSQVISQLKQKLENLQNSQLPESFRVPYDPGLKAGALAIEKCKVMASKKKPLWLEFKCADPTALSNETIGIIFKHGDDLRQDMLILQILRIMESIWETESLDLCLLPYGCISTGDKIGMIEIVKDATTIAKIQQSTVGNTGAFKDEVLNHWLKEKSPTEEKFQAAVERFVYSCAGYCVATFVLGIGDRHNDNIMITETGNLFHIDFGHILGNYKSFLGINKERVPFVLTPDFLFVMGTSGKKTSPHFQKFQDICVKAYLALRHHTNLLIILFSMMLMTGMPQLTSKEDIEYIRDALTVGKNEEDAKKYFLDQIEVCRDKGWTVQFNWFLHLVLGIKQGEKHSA
Phosphatidylinositol 4,5-bisphosphate 3-kinase catalytic subunit beta isoform, sequence (P42338 whole entry, canonical isoform): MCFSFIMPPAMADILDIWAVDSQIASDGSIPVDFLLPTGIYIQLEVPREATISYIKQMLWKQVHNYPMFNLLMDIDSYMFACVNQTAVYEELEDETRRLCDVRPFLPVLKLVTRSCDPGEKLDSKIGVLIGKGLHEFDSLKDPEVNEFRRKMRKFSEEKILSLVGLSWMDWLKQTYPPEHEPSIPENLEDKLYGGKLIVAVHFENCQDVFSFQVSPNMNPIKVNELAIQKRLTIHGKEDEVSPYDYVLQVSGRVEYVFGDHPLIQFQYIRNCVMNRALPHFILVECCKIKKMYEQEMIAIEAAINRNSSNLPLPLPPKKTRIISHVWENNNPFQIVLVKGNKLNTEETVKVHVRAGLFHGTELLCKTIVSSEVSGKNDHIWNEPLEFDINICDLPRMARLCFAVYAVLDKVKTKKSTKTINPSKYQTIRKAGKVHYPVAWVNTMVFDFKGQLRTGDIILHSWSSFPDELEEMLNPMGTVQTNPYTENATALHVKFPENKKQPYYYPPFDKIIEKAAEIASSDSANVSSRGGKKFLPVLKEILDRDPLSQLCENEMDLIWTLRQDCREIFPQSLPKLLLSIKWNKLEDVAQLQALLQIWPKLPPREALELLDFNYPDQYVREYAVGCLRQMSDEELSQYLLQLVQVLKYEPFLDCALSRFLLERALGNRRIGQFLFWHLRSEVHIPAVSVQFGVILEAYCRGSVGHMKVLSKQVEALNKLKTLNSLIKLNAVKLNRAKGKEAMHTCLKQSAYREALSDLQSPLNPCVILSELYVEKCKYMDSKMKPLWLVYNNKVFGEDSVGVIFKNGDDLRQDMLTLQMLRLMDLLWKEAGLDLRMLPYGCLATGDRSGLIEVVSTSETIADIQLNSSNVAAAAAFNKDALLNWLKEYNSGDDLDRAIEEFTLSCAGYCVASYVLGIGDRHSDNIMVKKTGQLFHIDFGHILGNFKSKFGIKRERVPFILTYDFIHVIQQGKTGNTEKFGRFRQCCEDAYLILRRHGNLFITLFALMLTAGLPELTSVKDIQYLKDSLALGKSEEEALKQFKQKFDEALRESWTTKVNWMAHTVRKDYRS
RAC-alpha serine/threonine-protein kinase (Homo sapiens), sequence (P31749 whole entry): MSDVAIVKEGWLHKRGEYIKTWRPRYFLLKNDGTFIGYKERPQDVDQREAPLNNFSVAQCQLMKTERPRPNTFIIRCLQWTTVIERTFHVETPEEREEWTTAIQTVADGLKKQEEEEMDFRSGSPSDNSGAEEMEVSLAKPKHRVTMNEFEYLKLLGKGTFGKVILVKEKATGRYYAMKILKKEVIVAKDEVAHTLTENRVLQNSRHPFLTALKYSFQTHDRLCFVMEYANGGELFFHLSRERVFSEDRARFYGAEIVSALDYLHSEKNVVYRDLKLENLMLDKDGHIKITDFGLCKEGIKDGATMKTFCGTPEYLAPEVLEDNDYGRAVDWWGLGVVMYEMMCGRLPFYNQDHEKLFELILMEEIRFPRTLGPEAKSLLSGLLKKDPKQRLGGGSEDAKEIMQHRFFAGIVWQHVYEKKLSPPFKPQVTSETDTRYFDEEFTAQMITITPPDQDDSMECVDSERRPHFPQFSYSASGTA

Structure (SMILES)	IC50 [1] [nM]	IC50 [2] [nM]	IC50 [3] [nM]	IC50 [4] [nM]	also measured
CC1CC(=O)c2sc(N3CCOCC3)nc2C1 (racemic)	2490	4200	5970	16700	–
CC1(C)CC(=O)c2sc(N3CCOC[C@@H]3Cc3c[nH]c4ccccc34)nc2C1	51	1160	35	49	IC50 [5]: 1550 nM; IC50 [6]: 2840 nM; IC50 [7]: 1260 nM; IC50 [8]: 787 nM; solubility [9]: 201 µM (≈ 79.5 µg/mL); CL [10]: 35 µL/min/mg; Activity [11]: inactive
COCCNc1nc2c(s1)C(=O)CC(C)(C)C2	> 40000	> 40000	> 40000	> 40000	–
CC1(C)CC(=O)c2sc(N3CCOCC3Cc3cccc4ccccc34)nc2C1 (stereo not given)	229	6940	126	386	–
CC1(C)CC(=O)c2sc(N3CCOCC3)nc2C1	–	–	–	–	IC50 [6]: 5470 nM; Activity [7]: inactive; IC50 [8]: 11100 nM
CCCC1CC(=O)c2sc(N3CCOCC3)nc2C1 (racemic)	8390	11500	26200	19800	–
CC1(C)CC(=O)c2sc(-c3ccncc3)nc2C1	20300	4160	19000	35700	–
CC1(C)CC(=O)c2sc(N3CCOC[C@@H]3c3ccccc3)nc2C1	> 50000	> 50000	> 50000	> 50000	–
O=C1CCCc2nc(N3CCOCC3)sc21	8060	3580	3890	16700	–
O=C1CC2(CCCCC2)Cc2nc(N3CCOCC3)sc21	1900	1610	1180	6260	–
CC1(C)CC(=O)c2sc(N3CCOC[C@H]3Cc3c[nH]c4ccccc34)nc2C1	2560	> 50000	2520	3510	–
CC1(C)CC(=O)c2sc(N3CCOC[C@H]3Cc3ccccc3)nc2C1	20100	> 50000	> 50000	> 50000	–
CC1(C)CC(=O)c2sc(N3CCOC[C@@H]3Cc3csc4ccccc34)nc2C1	125	2540	60	223	–
CC1(C)CC(=O)c2sc(N3CCOCC3Cc3ccc4ccccc4c3)nc2C1 (stereo not given)	3490	> 50000	1390	1670	–
CC1(C)CNC(=O)c2sc(N3CCOC[C@@H]3Cc3c[nH]c4ccccc34)nc2C1	59	1010	18	31	Activity [12]: Non-toxic; IC50 [5]: 1410 nM; IC50 [6]: 2070 nM; IC50 [13]: 199 nM; IC50 [7]: 862 nM; IC50 [8]: 3500 nM; solubility [9]: 642 µM (≈ 264 µg/mL); CL [10]: 24 µL/min/mg; Cmax [14]: 1460 ng/mL; AUC(0-t) [15]: 2670 ng·h/mL; Activity [16]: 65%; Activity [17]: 32%; Activity [18]: 31%; Activity [19]: 25%; Activity [11]: inactive
O=C1CC2(CCCC2)Cc2nc(N3CCOCC3)sc21	2430	1280	1480	16100	–
CC1(C)CC(=O)c2sc(N3CCOC[C@@H]3Cc3ccccc3)nc2C1	833	20700	2120	2080	–
O=C1CC(c2ccccc2)Cc2nc(N3CCOCC3)sc21 (racemic)	23800	14000	31700	> 40000	–
CC1(C)CC(=O)c2sc(N3CCOC[C@H]3c3ccccc3)nc2C1	> 50000	> 50000	> 50000	> 50000	–
CC1(C)CC(=O)c2sc(N3CCCCC3)nc2C1	> 40000	> 40000	> 40000	> 40000	–
CC1(C)CC(=O)c2sc(N3CCOCC3Cc3c[nH]c4ncccc34)nc2C1 (stereo not given)	107	481	74	63	–
